Test results as given in US8809232B2, “Herbicidal compositions comprising 4-amino-3-chloro-5-fluoro-6-(4-chloro-2-fluoro-3-methoxyphenyl) pyridine-2-carboxylic acid or a derivative thereof and halosulfuron, pyrazosulfuron and esprocarb” (Dow Agrosciences LLC, priority 2012, dated 2014).

Tests used:
BRAPP = experiment: Post-emergence foliar-applied herbicidal mixtures, greenhouse, direct seeded rice weeds; assay type: in vivo
Description: (§1) Seeds or nutlets of the desired test plant species were planted in a soil matrix prepared by mixing a loam or sandy loam soil (e.g., 28.6 percent silt, 18.8 percent clay, and 52.6 percent sand, with a pH of about 5.8 and an organic matter content of about 1.8 percent) and calcareous grit in an 80 to 20 ratio. The soil matrix was contained in plastic pots with a volume of 1 quart and a surface area of 83.6 square centimeters (cm^2). When required to ensure good germination and healthy plants, a fungicide treatment and/or other chemical or physical treatment was applied. The plants were grown for 8-22 days in a greenhouse with an approximate 14 hr photoperiod which was maintained at about 29° C. during the day and 26° C. during the night. Nutrients (Peters Excel® 15-5-15 5-Ca 2-Mg and iron chelate) were applied in the irrigation solution as needed and water was added on a regular basis. Supplemental lighting was provided with overhead metal halide 1000-Watt lamps as necessary. The plants were employed for testing when they reached the first through fourth true leaf stage.
(§2) Treatments consisted of the acid or esters of 4-amino-3-chloro-5-fluoro-6-(4-chloro-2-fluoro-3-methoxy-phenyl)pyridine-2-carboxylic acid (Compound A), each formulated as an SC (suspension concentrate), and various herbicidal components alone and in combination. Forms of compound A were applied on an acid equivalent basis.
(§3) Other herbicidal components were applied on an active ingredient basis and included the acetolactate synthase (ALS)-inhibiting herbicides halosulfuron-methyl formulated as Permit® 75 WDG, pyrazosulfuron-ethyl formulated as Agreen® WG or Sirius® G, and the VLCFA inhibiting herbicide esprocarb (technical grade material).
(§4) Treatment requirements were calculated based upon the rates being tested, the concentration of active ingredient or acid equivalent in the formulation, and a 12 mL application volume at a rate of 187 L/ha.
(§5) For treatments comprised of formulated compounds, measured amounts of compounds were placed individually in 25 mL glass vials and diluted in a volume of 1.25% (v/v) Agri-Dex® crop oil concentrated to obtain 12× stock solutions. […] Application solutions were prepared by adding an appropriate amount of each stock solution (e.g., 1 mL) and diluted to the appropriate final concentrations with the addition of 10 mL of an aqueous mixture of 1.25% (v/v) crop oil concentrate so that the final spray solutions contained 1.25+/−0.05% (v/v) crop oil concentrate.
(§6) For treatments comprised of technical compounds, weighed amounts can be placed individually in 25 mL glass vials and dissolved in a volume of 97:3 v/v acetone/DMSO to obtain 12× stock solutions. […] Application solutions can be prepared by adding an appropriate amount of each stock solution (e.g., 1 mL) and diluted to the appropriate final concentrations with the addition of 10 mL of an aqueous mixture of 1.5% (v/v) crop oil concentrate so that the final spray solutions contain 1.25% (v/v) crop oil concentrate. When technical materials are used, the concentrated stock solutions can be added to the spray solutions so that the final acetone and DMSO concentrations of the application solutions are 16.2% and 0.5%, respectively.
(§7) For treatments comprised of formulated and technical compounds, weighed amounts of the technical materials were placed individually in 25 mL glass vials and dissolved in a volume of 97:3 v/v acetone/DMSO to obtain 12× stock solutions, and measured amounts of the formulated compounds were placed individually in 25 mL glass vials and diluted in a volume of 1.5% (v/v) crop oil concentrate or water to obtain 12× stock solutions. […] Application solutions were prepared by adding an appropriate amount of each stock solution (e.g., 1 mL) and diluted to the appropriate final concentrations with the addition of an appropriate amount of an aqueous mixture of 1.5% (v/v) crop oil concentrate so that the final spray solutions contained 1.25% (v/v) crop oil concentrate. […]

ECHCO = experiment: as above; assay type: in vivo, Echinochloa colona (L.) Link; settings: 105 g ai/ha
Description: as §1, with “stage. […]” for “stage.”
as §4
(§8) For treatments comprised of formulated compounds, measured amounts of compounds were placed individually in 25 mL glass vials and diluted in a volume of 1.25% (v/v) Agri-Dex® crop oil concentrated to obtain 12× stock solutions. […]
(§9) For treatments comprised of formulated and technical compounds, weighed amounts of the technical materials were placed individually in 25 mL glass vials and dissolved in a volume of 97:3 v/v acetone/DMSO to obtain 12× stock solutions, and measured amounts of the formulated compounds were placed individually in 25 mL glass vials and diluted in a volume of 1.5% (v/v) crop oil concentrate or water to obtain 12× stock solutions. […]

CYPIR = experiment: as above; assay type: in vivo, Cyperus iria L.
Description: as §1, §2, §3, §4, §8, §9

SCPJU [1] = experiment: as above; assay type: in vivo, Schoenoplectus juncoides (Roxb.) Palla
Description: as §1, with “stage. […]” for “stage.”
as §4, §8, §9

CYPRO = experiment: In-water applied herbicidal mixtures, greenhouse, transplanted paddy rice weeds; assay type: in vivo, Cyperus rotundus L.
Method: (§10) Weed seeds or nutlets of the desired test plant species were planted in puddled soil (mud) prepared by mixing a shredded, non-sterilized mineral soil (50.5 percent silt, 25.5 percent clay, and 24 percent sand, with a pH of about 7.6 and an organic matter content of about 2.9 percent) and water at a 1:1 volumetric ratio. The prepared mud was dispensed in 365 mL aliquots into 16-ounce (oz.) non-perforated plastic pots with a surface area of 86.59 square centimeters (cm^2) leaving a headspace of 3 centimeters (cm) in each pot Mud was allowed to dry overnight prior to planting or transplanting. Rice seeds were planted in Sun Gro MetroMix® 306 planting mixture, which typically has a pH of 6.0 to 6.8 and an organic matter content of about 30 percent, in plastic plug trays. Seedlings at the second or third leaf stage of growth were transplanted into 840 mL of mud contained in 32-oz. non-perforated plastic pots with a surface area of 86.59 cm^2 4 days prior to herbicide application. The paddy was created by filling the headspace of the pots with 2.5 to 3 cm of water. When required to ensure good germination and healthy plants, a fungicide treatment and/or other chemical or physical treatment was applied. The plants were grown for 4-22 days in a greenhouse with an approximate 14 hr photoperiod which was maintained at about 29′C during the day and 26° C. during the night. Nutrients were added as Osmocote® (19:6:12, N:P:K^+ minor nutrients) at 2 g per 16-oz. pot and 4 g per 32-oz. pot. Water was added on a regular basis to maintain the paddy flood, and supplemental lighting was provided with overhead metal halide 1000-Watt lamps as necessary. The plants were employed for testing when they reached the first through fourth true leaf stage.
as §2, with “(compound A)” for “(Compound A),”, “concentrate)” for “concentrate),”
(§11) Other herbicidal components were applied on an active ingredient basis and included acetolactate synthase (ALS)-inhibiting herbicides formulated as Permit® 75 WDG, pyrazosulfuron-ethyl formulated as Agreen® WG or Sirius® G, and VLCFA inhibiting herbicide esprocarb (technical grade material).
(§12) Treatment requirements for each compound or herbicidal component were calculated based upon the rates being tested, the concentration of active ingredient or acid equivalent in the formulation, an application volume of 2 mL per component per pot, and an application area of 86.59 cm^2 per pot.
(§13) For formulated compounds, a measured amount was placed in an individual 100 or 200 mL glass vial and was dissolved in a volume of 1.25% (v/v) Agri-Dex® crop oil concentrate to obtain application solutions.
(§14) For technical grade compounds, a weighed amount was placed in an individual 100 to 200 mL glass vial and was dissolved in a volume of acetone to obtain concentrated stock solutions. […] The concentrated stock solutions obtained were diluted with an equivalent volume of an aqueous mixture containing 2.5% (v/v) crop oil concentrate so that the final application solutions contained 1.25% (v/v) crop oil concentrate.
(§15) Applications were made by injecting with a pipetter appropriate amounts of the application solutions, individually and sequentially, into the aqueous layer of the paddy. Control plants were treated in the same manner with the solvent blank. Applications were made so that all treated plant material received the same concentrations of acetone and crop oil concentrate.
(§16) The treated plants and control plants were placed in a greenhouse as described above and water was added as needed to maintain a paddy flood. […]

FIMMI = experiment: as above; assay type: in vivo, Fimbristylis miliacea (L.) Vahl
Method: as §10
as §2, with “(compound A)” for “(Compound A),”, “concentrate)” for “concentrate),”
as §11, §12, §13, §14
Applications were made by injecting with a pipetter appropriate amounts of the application solutions, individually and sequentially, into the aqueous layer of the paddy. […]

SCPJU [2] = experiment: as above; assay type: in vivo, Schoenoplectus juncoides (Roxb.) Palla
Method: as §10
as §2, with “(compound A)” for “(Compound A),”, “concentrate)” for “concentrate),”, “basis. […]” for “basis.”
as §12
(§17) For formulated compounds, a measured amount was placed in an individual 100 or 200 mL glass vial and was dissolved in a volume of 1.25% (v/v) Agri-Dex® crop oil concentrate to obtain application solutions. […]

DIGSA = experiment: Post-emergence foliar-applied herbicidal mixtures, greenhouse, direct seeded rice weeds; assay type: in vivo, Digitaria sanguinalis (L.) Scop.; settings: 35 g ai/ha
Description: as §1, §2, §3, §4, §5, §6, §7

LEFCH = experiment: as above; assay type: in vivo, Leptochloa chinensis (L.) Nees
Description: as §1, §2, §3, §4, §5, §6, §7

ECHOR = experiment: In-water applied herbicidal mixtures, greenhouse, transplanted paddy rice weeds; assay type: in vivo, Echinochloa oryzoides (Ard.) Fritsch
Method: as §10
as §2, with “(compound A)” for “(Compound A),”, “concentrate)” for “concentrate),”
as §11, §12, §13, §14, §15, §16

SCPMA = experiment: as above; assay type: in vivo; settings: 35 g ai/ha
Method: as §10
as §2, with “(compound A)” for “(Compound A),”, “concentrate)” for “concentrate),”
as §11, §12, §13, §14, §15, §16

ECHCG = experiment: as above; assay type: in vivo, Echinochloa crus-galli (L.) Beauv.; settings: 17.5 g ai/ha
Method: as §10, with “Water was added on a regular basis to maintain the paddy flood, and supplemental lighting was provided with overhead metal halide 1000-Watt lamps as necessary. The plants were employed for testing when they reached the first through fourth true leaf stage.” left out
as §12, §17

CCN(C(=O)SCc1ccccc1)C(C)C(C)C (stereo not drawn) [Esprocarb, S-(phenylmethyl) N-(1,2-dimethylpropyl)-N-ethylcarbamothioate]
Visual Weed Control (%) - 22 DAA BRAPP Obs (BRAPP; 52.5 g ai/ha): 0%
Visual Weed Control (%) - 22 DAA BRAPP Obs (BRAPP; 105 g ai/ha): 0%
Visual Weed Control (%) - 22 DAA ECHCO Obs (ECHCO): 0%
Visual Weed Control (%) - 22 DAA CYPIR Obs (CYPIR; 52.5 g ai/ha): 0%
Visual Weed Control (%) - 22 DAA CYPIR Obs (CYPIR; 105 g ai/ha): 0%
Visual Weed Control (%) - 22 DAA SCPJU Obs (SCPJU [1]; 52.5 g ai/ha): 0%
Visual Weed Control (%) - 22 DAA SCPJU Obs (SCPJU [1]; 105 g ai/ha): 0%
Visual Weed Control (%) - 21 DAA CYPRO Obs (CYPRO; 105 g ai/ha): 0%
Visual Weed Control (%) - 21 DAA CYPRO Obs (CYPRO; 210 g ai/ha): 50%
Visual Weed Control (%) - 21 DAA FIMMI Obs (FIMMI; 105 g ai/ha): 0%
Visual Weed Control (%) - 21 DAA FIMMI Obs (FIMMI; 210 g ai/ha): 0%
Visual Weed Control (%) - 21 DAA SCPJU Obs (SCPJU [2]; 105 g ai/ha): 0%
Visual Weed Control (%) - 21 DAA SCPJU Obs (SCPJU [2]; 210 g ai/ha): 0%

COC(=O)c1c(Cl)nn(C)c1S(=O)(=O)NC(=O)Nc1nc(OC)cc(OC)n1 [Halosulfuron-methyl, methyl 3-chloro-5-[[[[(4,6-dimethoxy-2-pyrimidinyl)amino]carbonyl]amino]sulfonyl]-1-methyl-1H-pyrazole-4-carboxylate, reference compound]
Visual Weed Control (%) - 20 DAA BRAPP Obs (BRAPP; 4.38 g ai/ha): 0%
Visual Weed Control (%) - 20 DAA BRAPP Obs (BRAPP; 8.75 g ai/ha): 0%
Visual Weed Control (%) - 20 DAA BRAPP Obs (BRAPP; 17.5 g ai/ha): 0%
Visual Weed Control (%) - 20 DAA DIGSA Obs (DIGSA): 10%
Visual Weed Control (%) - 20 DAA LEFCH Obs (LEFCH; 8.75 g ai/ha): 0%
Visual Weed Control (%) - 20 DAA LEFCH Obs (LEFCH; 17.5 g ai/ha): 0%
Visual Weed Control (%) - 20 DAA LEFCH Obs (LEFCH; 35 g ai/ha): 5%
Visual Weed Control (%) - 21 DAA ECHOR Obs (ECHOR; 8.75 g ai/ha): 0%
Visual Weed Control (%) - 21 DAA ECHOR Obs (ECHOR; 17.5 g ai/ha): 0%
Visual Weed Control (%) - 20 DAA ECHOR Obs (ECHOR; 35 g ai/ha): 0%
Visual Weed Control (%) - 20 DAA SCPMA Obs (SCPMA): 65%
Visual Weed Control (%) - 21 DAA ECHCG Obs (ECHCG): 0%
Visual Weed Control (%) - 21 DAA CYPRO Obs (CYPRO; 8.75 g ai/ha): 60%
Visual Weed Control (%) - 21 DAA CYPRO Obs (CYPRO; 17.5 g ai/ha): 100%
